In patent US20250221996A1, “HETEROCYCLIC COMPOUNDS, COMPOSITIONS THEREOF, AND METHODS OF TREATMENT THEREWITH” (BeiGene, Ltd., priority 2022, published 2025) one finds IC50 data, which are given here for nine compounds.

In this assay the test system is pERK1/2(THR202/TYR204) level in AsPC-1 cells. The experiment in a line: pERK assay (HTRF) in AsPC-1 cell line. The assay is classed as cell-based. The conditions noted are these: 2 h compound treatment. Here is the method:
AsPC-1 cell line was used in this study. Cells were maintained in RPMI-1640 supplemented with 10% fetal bovine serum (Thermo Fisher), 50 units/mL penicillin and streptomycin (Thermo Fisher) and kept at 37° C. in a humidified atmosphere of 5% CO2 in air. Cells were reinstated from frozen stocks that were laid down within 30 passages from the original cells purchased. 30000 cells per well were seeded into a 96-well plate and incubated overnight. Cells were treated with a 10-point dilution series. The final compound concentration is from 0 to 10 μM. After 2 h compound treatment, cells were lysed, and the pERK1/2(THR202/TYR204) level in the cell lysates was detected by HTRF kit (Cisbio). In brief, a total of 16 μL of cell lysate from each well of a 96-well plate was transferred to a 384-well white assay plate. Lysate from each well was incubated with 2 μL of Eu3+-cryptate (donor) labeled anti-phospho-ERK1/2 and 2 μL of D2 (acceptor) labeled anti-phospho-ERK1/2 antibodies (Cisbio) overnight in dark at room temperature. When donor and acceptor are in close proximity, excitation of the donor with laser triggers a Fluorescence Resonance Energy Transfer (FRET) towards the acceptor, which in turn fluoresces at 655 nm wavelength. FRET signals were measured using a PHERAstar FSX reader (BMG Labtech). IC50 determination was performed by fitting the curve of percent inhibition versus the log of the inhibitor concentration using Dotmatics.

As a reminder, the IC50 is the concentration that inhibits the measured activity by half. Read a low IC50 as greater potency. `CCc1cc2c(N3CC4CCC(C3)N4)nc(OCC34COC(C)(C3)C4)nc2c(F)c1-c1ccc(F)c2sc(N)c(C#N)c12` [Example 52, 4-(4-(3,8-diazabicyclo[3.2.1]octan-3-yl)-6-ethyl-8-fluoro-2-((1-methyl-2-oxabicyclo[2.1.1]hexan-4-yl)methoxy)quinazolin-7-yl)-2-amino-7-fluorobenzo[b]thiophene-3-carbonitrile] came in with an IC50 (Homo sapiens, ASPC1, 2 h) of 235 nM. That is a sub-micromolar value.

Compound `CC12CC(COc3nc(N4CC5CCC(C4)N5)c4ccc(-c5cc(O)cc6ccccc56)c(F)c4n3)(CO1)C2` [Example 42, 4-(4-(3,8-diazabicyclo[3.2.1]octan-3-yl)-8-fluoro-2-((1-methyl-2-oxabicyclo[2.1.1]hexan-4-yl)methoxy)quinazolin-7-yl)naphthalen-2-ol] came in with an IC50 (Homo sapiens, ASPC1, 2 h) of 4340 nM.

With `CC(=O)N1CC(C)(COc2nc(N3CC4CCC(C3)N4)c3cc(C(F)(F)F)c(-c4ccc(F)c5sc(N)c(C#N)c45)c(F)c3n2)C1` [Example 13, 4-(2-((1-acetyl-3-methylazetidin-3-yl)methoxy)-4-(3,8-diazabicyclo[3.2.1]octan-3-yl)-8-fluoro-6-(trifluoromethyl)quinazolin-7-yl)-2-amino-7-fluorobenzo[b]thiophene-3-carbonitrile], the IC50 (Homo sapiens, ASPC1, 2 h) stood at 146 nM.

Take `CCC12CC(COc3nc(N4CC5CCC(C4)N5)c4cc(C(F)(F)F)c(-c5ccc(F)c6sc(N)c(C#N)c56)c(F)c4n3)(CO1)C2` [Example 12, 4-(4-(3,8-diazabicyclo[3.2.1]octan-3-yl)-2-((1-ethyl-2-oxabicyclo [2.1.1]hexan-4-yl)methoxy)-8-fluoro-6-(trifluoromethyl)quinazolin-7-yl)-2-amino-7-fluorobenzo[h]thiophene-3-carbonitrile]: the IC50 (Homo sapiens, ASPC1, 2 h) amounted to 1730 nM.

`CC1(COc2nc(N3CC4CCC(C3)N4)c3cc(C(F)(F)F)c(-c4ccc(F)c5sc(N)c(C#N)c45)c(F)c3n2)CN(S(C)(=O)=O)C1` [Example 38, 4-(4-(3,8-diazabicyclo[3.2.1]octan-3-yl)-8-fluoro-2-((3-methyl-1-(methylsulfonyl)azetidin-3-yl)methoxy)-6-(trifluoromethyl)quinazolin-7-yl)-2-amino-7-fluorobenzo[b]thiophene-3-carbonitrile]: 180 nM corresponded to half-maximal inhibition (Homo sapiens, ASPC1, 2 h) (IC50).

For `CC(F)(F)C1(COc2nc(N3CC4CCC(C3)N4)c3cc(C(F)(F)F)c(-c4ccc(F)c5sc(N)c(C#N)c45)c(F)c3n2)COC1` [Example 34], half-maximal inhibition (Homo sapiens, ASPC1, 2 h) (IC50) was put at 81 nM.

`CC12CC(COc3nc(N4C5CNCC4COC5)c4cc(C(F)(F)F)c(-c5ccc(F)c6sc(N)c(C#N)c56)c(F)c4n3)(CO1)C2` [Example 16, 4-(4-(3-oxa-7,9-diazabicyclo[3.3.1]nonan-9-yl)-8-fluoro-2-((1-methyl-2-oxabicyclo[2.1.1]hexan-4-yl)methoxy)-6-(trifluoromethyl)quinazolin-7-yl)-2-amino-7-fluorobenzo[b]thiophene-3-carbonitrile]: the concentration for half-maximal inhibition (IC50) (Homo sapiens, ASPC1, 2 h) was 143 nM.

`N#Cc1c(N)sc2c(F)ccc(-c3c(C(F)(F)F)cc4c(N5CC6CCC(C5)N6)nc(OCC56COC(C(F)F)(C5)C6)nc4c3F)c12` (single isomer, unassigned) [Example 1-Isomer 2, 4-(4-(3,8-diazabicyclo[3.2.1]octan-3-yl)-2-((1-(difluoromethyl)-2-oxabicyclo[2.1.1]hexan-4-yl)methoxy)-8-fluoro-6-(trifluoromethyl)quinazolin-7-yl)-2-amino-7-fluorobenzo[b]thiophene-3-carbonitrile] showed an IC50 of 84 nM. This lies in the double-digit nanomolar range.

The compound `N#Cc1c(N)sc2c(F)ccc(-c3c(C(F)(F)F)cc4c(N5C6CCC5CNC6)nc(OCC56COC(C5)C6)nc4c3F)c12` (single isomer, unassigned) [Example 9-Isomer 1, 4-(2-((2-oxabicyclo[2.1.1]hexan-4-yl)methoxy)-4-(3,8-diazabicyclo[3.2.1]octan-8-yl)-8-fluoro-6-(trifluoromethyl)quinazolin-7-yl)-2-amino-7-fluorobenzo[b]thiophene-3-carbonitrile] came in with an IC50 of over 10000 nM.
